Results on 1 compound are retold here after patent US20250354182A1, “BIOSYNTHESIS OF BIFUNCTIONAL TERPENOIDS” (The Regents of the University of California, priority 2024, published 2025).

The subject of assay [1] is Immortalized baby mouse kidney (iBMK) cells, Ras-activated (Ras). Description: iBMK cell growth with 12a, Ras-activated (Ras). Type of assay: cell-based. The procedure:
(§1) FIG. 7: Bioactivity of farnesoic diacid. FIG. 7(a): E. coli NCM372 was grown to an optical density (OD600) of around 0.2, where either 12a in DMSO was added to final concentration of 10 μM (+) or DMSO was added (−). Three biological replicates are shown, and statistical significance using an unpaired t test is shown. FIG. 7(b): Immortalized baby mouse kidney (iBMK) cells were grown, either non-activated (D3) or Ras-activated (Ras). 12a in DMSO was added to final concentration of 10 μM (+) or DMSO was added (−). Three biological replicates are shown, and statistical significance using an unpaired t test is shown.
(§2) We supplemented cultures with 12a to a final concentration of 10 μM and monitored growth in both Escherichia coli (FIG. 6a) and mammalian cell lines (FIG. 6b). […] These findings provide evidence that farnesoic diacid and potentially our other newly discovered bifunctional terpenoids may have distinct bioactivities across diverse biological contexts, with applications in more efficient cultivation of microbes and selective activity against certain mammalian cells. As the longer bifunctional terpenoids (C25-C30) resemble oxylipin and polyunsaturated fatty acids, which are implicated in immunity and obesity, we reason that bioactivity may be related to lipid metabolism in mammalian systems that will be relevant in pharmaceutical contexts. […]

Assay [2] relates to Immortalized baby mouse kidney (iBMK) cells, non-activated (D3). Briefly: iBMK cell growth with 12a, non-activated (D3). Type of assay: cell-based. The procedure:
as §1, §2

Assay [3] relates to E. coli NCM372. Briefly: E. coli growth with 12a supplementation. Type of assay: cell-based, Escherichia coli. As to the method: as §1
We supplemented cultures with 12a to a final concentration of 10 μM and monitored growth in both Escherichia coli (FIG. 6a) and mammalian cell lines (FIG. 6b). […] These findings provide evidence that farnesoic diacid and potentially our other newly discovered bifunctional terpenoids may have distinct bioactivities across diverse biological contexts, with applications in more efficient cultivation of microbes and selective activity against certain mammalian cells. As the longer bifunctional terpenoids (C25-C30) resemble oxylipin and polyunsaturated fatty acids, which are implicated in immunity and obesity, we reason that bioactivity may be related to lipid metabolism in mammalian systems that will be relevant in pharmaceutical contexts. Furthermore, the shorter bifunctional terpenoids (C15-C20) and their preceding biosynthetic intermediates resemble inhibitors of insect development, such as juvenile hormones, these molecules may serve as scaffolds for insecticide drug activity to target insect development. Further research on the novel molecules will illuminate more bioactivities on humans, human cells, research animals, plants, insects, and microorganisms.

[4] abbreviates: 12a 10 μM vs DMSO, 3 biological replicates.

Entries after “also recorded” stand apart in the source; their conditions may differ.

`C/C(=C\CC/C(C)=C/C(=O)O)CC/C=C(\C)C(=O)O` [12a, farnesoic diacid]: the “proliferation / cell growth” value in assay [1] (12a 10 μM) and in assay [2] (12a 10 μM) was “decreases mammalian (cancer-like) cell growth; also recorded: modest decrease in proliferation” throughout. The “cancer-like cell lines grew slower with treatment” value in assay [1] (setting [4]) and in assay [2] (setting [4]) was ~10% each time. In addition, the “microbial cells grew faster with treatment” value in assay [3] (12a 10 μM in DMSO vs DMSO, added at OD600 around 0.2, 3 biological replicates) is on record as ~10%. The “final optical density” value in assay [3] (12a 10 μM vs DMSO) is reported as “higher final optical density”. Further, the “microbial growth rate / cell growth” value in assay [3] (12a 10 μM vs DMSO) is “increases microbial cell growth; also recorded: increased microbial growth rate”. In addition, the “total biomass content” value in assay [3] (farnesoic diacid treatment, FIG. 7) was “increased”.
